Source: ChEMBL document CHEMBL3352126, “Bahamaolide A from the marine-derived Streptomyces sp. CNQ343 inhibits isocitrate lyase in Candida albicans” (Bioorg Med Chem Lett, 2014)
Values after ≈ are worked out from the molar mass of the structure shown. Active and inactive are the calls of the source. The calls are words filed in the database; no cut-off is given here.

How the values were obtained:
Isocitrate lyase = Isocitrate lyase (Candida albicans, UniProt Q9P8Q7); assay: Inhibition of Candida albicans ATCC 10231 isocitrate lyase
Isocitrate lyase, sequence (Q9P8Q7 whole entry): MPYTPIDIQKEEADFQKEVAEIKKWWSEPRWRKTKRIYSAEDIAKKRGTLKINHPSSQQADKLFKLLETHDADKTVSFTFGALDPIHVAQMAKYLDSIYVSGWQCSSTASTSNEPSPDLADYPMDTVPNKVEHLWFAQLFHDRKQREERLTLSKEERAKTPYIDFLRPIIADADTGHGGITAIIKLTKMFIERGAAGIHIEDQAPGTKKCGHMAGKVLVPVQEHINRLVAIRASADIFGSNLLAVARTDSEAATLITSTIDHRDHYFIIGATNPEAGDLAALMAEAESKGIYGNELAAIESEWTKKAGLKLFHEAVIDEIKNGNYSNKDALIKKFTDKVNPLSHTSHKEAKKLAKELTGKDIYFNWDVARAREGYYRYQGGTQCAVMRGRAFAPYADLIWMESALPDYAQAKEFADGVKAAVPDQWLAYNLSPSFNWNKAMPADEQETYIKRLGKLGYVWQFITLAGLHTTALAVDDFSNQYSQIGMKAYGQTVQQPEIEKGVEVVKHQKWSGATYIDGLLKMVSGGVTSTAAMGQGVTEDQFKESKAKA

Candida albicans [1] = assay: Antifungal activity against Candida albicans SC5314 in YNB broth containing 2% glucose as sole carbon source after 72 hrs by broth dilution assay; format: functional; details: SC5314, 72 h
Candida albicans [2] = assay: Antifungal activity against Candida albicans ATCC 10231 in YNB broth containing 2% glucose as sole carbon source after 72 hrs by broth dilution assay; format: functional; details: ATCC 10231, 72 h
Candida albicans [3] = assay: Antifungal activity against Candida albicans ATCC 10259 in YNB broth containing 2% glucose as sole carbon source after 72 hrs by broth dilution assay; format: functional; details: ATCC 10259, 72 h
Candida albicans [4] = assay: Antifungal activity against Candida albicans ATCC 11006 in YNB broth containing 2% glucose as sole carbon source after 72 hrs by broth dilution assay; format: functional; details: ATCC 11006, 72 h
Candida albicans [5] = assay: Antifungal activity against Candida albicans ATCC 18804 in YNB broth containing 2% glucose as sole carbon source after 72 hrs by broth dilution assay; format: functional; details: ATCC 18804, 72 h
Candida albicans [6] = assay: Antifungal activity against Candida albicans SC5314 in YNB broth containing 2% potassium acetate as sole carbon source after 72 hrs by broth dilution assay; format: functional; details: SC5314, 72 h
Candida albicans [7] = assay: Antifungal activity against Candida albicans ATCC 10231 in YNB broth containing 2% potassium acetate as sole carbon source after 72 hrs by broth dilution assay; format: functional; details: ATCC 10231, 72 h
Candida albicans [8] = assay: Antifungal activity against Candida albicans ATCC 10259 in YNB broth containing 2% potassium acetate as sole carbon source after 72 hrs by broth dilution assay; format: functional; details: ATCC 10259, 72 h
Candida albicans [9] = assay: Antifungal activity against Candida albicans ATCC 11006 in YNB broth containing 2% potassium acetate as sole carbon source after 72 hrs by broth dilution assay; format: functional; details: ATCC 11006, 72 h
Candida albicans [10] = assay: Antifungal activity against Candida albicans ATCC 18804 in YNB broth containing 2% potassium acetate as sole carbon source after 72 hrs by broth dilution assay; format: functional; details: ATCC 18804, 72 h
Candida albicans [11] = assay: Antifungal activity against Candida albicans SC5314 in YNB broth containing 2% glucose as sole carbon source at 3.12 ug/mL after 72 hrs by broth dilution assay; format: functional, organism-based
Candida albicans [12] = assay: Antifungal activity against Candida albicans MRC10 (deltaicl) in YNB broth containing 2% potassium acetate as sole carbon source at 3.12 ug/mL after 72 hrs by broth dilution assay; format: functional, organism-based
Candida albicans [13] = assay: Antifungal activity against Candida albicans Candida albicans MRC11 (deltaicl + ICL) in YNB broth containing 2% potassium acetate as sole carbon source at 3.12 ug/mL after 72 hrs by broth dilution assay; format: functional, organism-based
Candida albicans [14] = assay: Inhibition of ICL mRNA expression in Candida albicans SC5314 in YNB broth containing 2% potassium acetate as sole carbon source at 3.12 ug/mL after 48 hrs by real time RT-PCR method; format: functional
Candida albicans [15] = assay: Inhibition of ICL mRNA expression in Candida albicans MRC10 (deltaicl) in YNB broth containing 2% potassium acetate as sole carbon source at 3.12 ug/mL after 48 hrs by real time RT-PCR method; format: functional, organism-based
Candida albicans [16] = assay: Inhibition of ICL mRNA expression in Candida albicans MRC11 (deltaicl + ICL) in YNB broth containing 2% potassium acetate as sole carbon source at 3.12 ug/mL after 48 hrs by real time RT-PCR method; format: functional, organism-based

SMILES	IC50 (Isocitrate lyase)	MIC (Candida albicans [1])	MIC (Candida albicans [2])	MIC (Candida albicans [3])	MIC (Candida albicans [4])	MIC (Candida albicans [5])	MIC (Candida albicans [6])	MIC (Candida albicans [7])	MIC (Candida albicans [8])	MIC (Candida albicans [9])	MIC (Candida albicans [10])	growth inhibition (GI) (Candida albicans [11])	growth inhibition (GI) (Candida albicans [12])	growth inhibition (GI) (Candida albicans [13])	fold change (FC) (Candida albicans [14])	inhibition (Candida albicans [15])	inhibition (Candida albicans [16])
O=C(O)CC[N+](=O)[O-]	17.3 µM	–	–	–	–	–	–	–	–	–	–	–	–	–	–	–	–
C[C@@H]1[C@H](O)[C@@H](C)/C=C/C=C/C=C/C=C/C=C/C=C/C=C/[C@H](O[C@@H]2O[C@H](C)[C@@H](O)[C@H](N)[C@@H]2O)C[C@@H]2O[C@](O)(C[C@@H](O)C[C@@H](O)[C@H](O)CC[C@@H](O)C[C@@H](O)CC(=O)O[C@H]1C)C[C@H](O)[C@H]2C(=O)O [AMPHOTERICIN B]	–	1.56 µg/mL (≈ 1.69 µM)	1.56 µg/mL (≈ 1.69 µM)	3.12 µg/mL (≈ 3.38 µM)	1.56 µg/mL (≈ 1.69 µM)	1.56 µg/mL (≈ 1.69 µM)	0.39 µg/mL (≈ 0.422 µM)	0.78 µg/mL (≈ 0.844 µM)	1.56 µg/mL (≈ 1.69 µM)	0.78 µg/mL (≈ 0.844 µM)	0.78 µg/mL (≈ 0.844 µM)	–	–	–	–	–	–
CC(C)[C@@H]1OC(=O)/C=C/C=C/C=C/C=C/C=C/C=C/C[C@@H](O)C[C@H](O)C[C@H](O)C[C@H](O)C[C@@H](O)C[C@H](O)C[C@@H](O)C[C@@H](O)C[C@@H](O)CC[C@@H]1C [BAHAMAOLIDE A]	11.8 µM	25 µg/mL (≈ 35.3 µM)	25 µg/mL (≈ 35.3 µM)	25 µg/mL (≈ 35.3 µM)	12.5 µg/mL (≈ 17.6 µM)	25 µg/mL (≈ 35.3 µM)	3.12 µg/mL (≈ 4.4 µM)	3.12 µg/mL (≈ 4.4 µM)	3.12 µg/mL (≈ 4.4 µM)	1.56 µg/mL (≈ 2.2 µM)	3.12 µg/mL (≈ 4.4 µM)	inactive	Active	Active	5	Active	Active
